Source: patent US9249125B2, “Pyrazole derivatives as p38 MAP inhibitors” (RESPIVERT LIMITED, priority 2012, dated 2016)

Columns and labels:
[1] = test system: LPS-induced IL-8 release in d-U937 cells; experiment: LPS-induced IL-8 release in d-U937 cells; assay type: cell-based; details: Homo sapiens, dU937, read-out: LPS Induced Release of Cytokine in d-937 Cells IL-8 IC50
How it was run: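 PMA (100 ng/mL, 48–72 hr)-differentiated U937; cpd 2 hr pre-inc; LPS 0.1 μg/mL (E. coli O111:B4) 4 hr. Supernatant TNFα/IL-8 by sandwich ELISA. IL-8 inhibition per concentration vs vehicle; REC50 from curve fit.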

[2] = target: GSK3α (Homo sapiens (Human), UniProt P49840); experiment: GSK 3α enzyme inhibition (FRET, Z-LYTE); assay type: biochemical
Chain of GSK3α (P49840 whole entry): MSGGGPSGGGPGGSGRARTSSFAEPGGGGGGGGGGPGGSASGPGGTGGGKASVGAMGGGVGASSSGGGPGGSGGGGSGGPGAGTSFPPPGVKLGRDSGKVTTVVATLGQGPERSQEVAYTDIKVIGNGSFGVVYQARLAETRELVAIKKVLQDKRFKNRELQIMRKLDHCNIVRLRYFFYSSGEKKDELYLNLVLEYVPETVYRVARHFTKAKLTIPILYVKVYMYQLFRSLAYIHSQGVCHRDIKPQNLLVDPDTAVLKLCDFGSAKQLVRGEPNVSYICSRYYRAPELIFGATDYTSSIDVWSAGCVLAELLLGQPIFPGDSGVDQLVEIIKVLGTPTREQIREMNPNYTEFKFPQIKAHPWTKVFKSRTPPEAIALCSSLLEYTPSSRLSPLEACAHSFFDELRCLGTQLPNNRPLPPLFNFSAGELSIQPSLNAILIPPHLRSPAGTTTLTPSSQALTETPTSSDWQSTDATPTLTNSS
How it was run: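 GSK3α (500 ng/mL stock) was preincubated 2 hr at RT with compound (4 to 0.004 μg/mL stocks), then FRET peptide (8 μM stock) and ATP (40 μM stock) added for 1 hr. Protease development for 1 hr cleaved unphosphorylated peptide; coumarin/fluorescein emission ratio reported phosphorylation.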

[3] = target: Syk (Homo sapiens (Human), UniProt P43405); experiment: Syk enzyme inhibition (FRET, Z-LYTE); assay type: biochemical
How it was run: (§1)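 Z-LYTE FRET kinase assay: enzyme (3000 or 2000 ng/mL stock, respectively) preincubated 2 h at RT with compound (4–0.004 μg/mL stocks), then FRET peptide plus ATP (800 μM stock for c-Src, 60 μM for Syk) added for 1 h. Protease development 1 h; phosphorylation from coumarin/fluorescein emission ratio.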

[4] = test system: LPS-induced TNFα release in d-U937 cells; experiment: LPS-induced TNFα release in d-U937 cells; assay type: cell-based; details: Homo sapiens, dU937, relative to 10 μg/mL BIRB796, read-out: LPS Induced Release of Cytokine in d-937 Cells TNFα REC50
How it was run: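 Human monocytic U937 cells were differentiated to macrophage-type cells with PMA (100 ng/mL) for 48 to 72 hr, pre-treated with test compound for 2 hr, then stimulated 4 hr with E. coli O111:B4 LPS (0.1 μg/mL). Supernatant TNFα and IL-8 were measured by sandwich ELISA; REC50 came from concentration-response curves.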

[5] = test system: Poly I:C-induced ICAM-1 expression in BEAS2B cells; experiment: Poly I:C-induced ICAM-1 expression in BEAS2B cells; assay type: cell-based; details: Homo sapiens, BEAS-2B, read-out: Poly IC induced ICAM1 in BEAS2B IC50
How it was run: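 BEAS2B human bronchial epithelial cells pre-incubated with compound for 2 hr, then transfected with 1 μg/mL poly I:C plus Oligofectamine. At 18 hr, surface ICAM-1 measured by cell-based ELISA (HRP, OD450–655). Signal corrected for cell number by crystal violet OD595.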

[6] = target: cSrc (Homo sapiens (Human), UniProt P12931); experiment: c-Src enzyme inhibition (FRET, Z-LYTE); assay type: biochemical
Chain of cSrc (P12931 whole entry, looked up): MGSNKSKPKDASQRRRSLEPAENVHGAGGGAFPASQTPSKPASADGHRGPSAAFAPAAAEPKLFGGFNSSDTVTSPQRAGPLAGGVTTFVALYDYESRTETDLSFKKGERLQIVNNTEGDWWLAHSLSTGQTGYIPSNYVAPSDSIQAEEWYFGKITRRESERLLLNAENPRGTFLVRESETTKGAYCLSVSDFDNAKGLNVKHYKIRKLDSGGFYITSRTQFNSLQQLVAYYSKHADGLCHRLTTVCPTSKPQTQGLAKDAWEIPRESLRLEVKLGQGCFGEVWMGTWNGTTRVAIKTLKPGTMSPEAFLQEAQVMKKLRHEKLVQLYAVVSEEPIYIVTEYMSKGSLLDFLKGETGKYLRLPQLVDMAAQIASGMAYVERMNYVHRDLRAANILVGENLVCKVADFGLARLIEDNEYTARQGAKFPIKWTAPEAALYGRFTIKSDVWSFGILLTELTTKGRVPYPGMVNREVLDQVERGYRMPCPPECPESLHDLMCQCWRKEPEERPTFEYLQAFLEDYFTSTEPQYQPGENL
How it was run: as §1

[7] = test system: d-U937 cells; experiment: Cell viability: MTT assay; assay type: cell-based, human; details: 1 μg/mL
How it was run: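 Differentiated U937 cells were exposed to compound at 1 or 10 μg/mL either 4 h in 5% FCS RPMI1640 or 24 h in 10% FCS RPMI1640, then given MTT for 1 h, DMSO-solubilised and read at 550 nm. Percent viability loss versus 0.5% DMSO vehicle; apparent gains appear negative.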

Structure (SMILES)	IC50 [1] [nM]	IC50 [2] [nM]	IC50 [3] [nM]	EC50 [4] [nM]	IC50 [5] [nM]	IC50 [6] [nM]	MTT Assay Cell viability at time point in d-U937 cells 4 h [7]	MTT Assay Cell viability at time point in d-U937 cells 24 h [7]
Cc1ccc(-n2nc(C(C)(C)C)cc2NC(=O)Nc2ccc(Oc3ccnc(Nc4ccc5scnc5c4)n3)c3ccccc23)cc1 [Example 34, 1-(4-((2-(benzo[d]thiazol-5-ylamino)pyrimidin-4-yl)oxy)naphthalen-1-yl)-3-(3-(tert-butyl)-1-(p-tolyl)-1H-pyrazol-5-yl)urea]	3.4	1620	> 1560	0.9	6.3	18	−ve (−ve and +ve indicate that the value is below and above respectively, the no significant effect threshold, defined as 30% inhibition at 1 μg/mL at the time point indicated.)	−ve (−ve and +ve indicate that the value is below and above respectively, the no significant effect threshold, defined as 30% inhibition at 1 μg/mL at the time point indicated.)
Cc1ccc(-n2nc(C(C)(C)C)cc2NC(=O)Nc2ccc(Oc3ccnc(Nc4ccc5ncsc5c4)n3)c3ccccc23)cc1 [Example 35, 1-(4-((2-(benzo[d]thiazol-6-ylamino)pyrimidin-4-yl)oxy)naphthalen-1-yl)-3-(3-(tert-butyl)-1-(p-tolyl)-1H-pyrazol-5-yl)urea]	22.2	> 15600	> 1560	11	2.7	18	−ve (−ve and +ve indicate that the value is below and above respectively, the no significant effect threshold, defined as 30% inhibition at 1 μg/mL at the time point indicated.)	−ve (−ve and +ve indicate that the value is below and above respectively, the no significant effect threshold, defined as 30% inhibition at 1 μg/mL at the time point indicated.)
COc1ccc(-n2nc(C(C)(C)C)cc2NC(=O)Nc2ccc(Oc3ccnc(Nc4ccc5[nH]ncc5c4)n3)c3ccccc23)cc1 [Example 40, 1-(4-((2-((1H-indazol-5-yl)amino)pyrimidin-4-yl)oxy)naphthalen-1-yl)-3-(3-(tert-butyl)-1-(4-methoxyphenyl)-1H-pyrazol-5-yl)urea]	7.2	> 15600	24	1.5	2.4	8	−ve (−ve and +ve indicate that the value is below and above respectively, the no significant effect threshold, defined as 30% inhibition at 1 μg/mL at the time point indicated.)	−ve (−ve and +ve indicate that the value is below and above respectively, the no significant effect threshold, defined as 30% inhibition at 1 μg/mL at the time point indicated.)
Cc1cc(Nc2nccc(Oc3ccc(NC(=O)Nc4cc(C(C)(C)C)nn4-c4cccc(OCCN5CCOCC5)c4)c4ccccc34)n2)cc2cn[nH]c12 [Example 56, 1-(3-(tert-butyl)-1-(3-(2-morpholinoethoxy)phenyl)-1H-pyrazol-5-yl)-3-(4-((2-((7-methyl-1H-indazol-5-yl)amino)pyrimidin-4-yl)oxy)naphthalen-1-yl)urea]	11	> 13300	3	4.9	11.9	2	−ve (−ve and +ve indicate that the value is below and above respectively, the no significant effect threshold, defined as 30% inhibition at 1 μg/mL at the time point indicated.)	+ve (−ve and +ve indicate that the value is below and above respectively, the no significant effect threshold, defined as 30% inhibition at 1 μg/mL at the time point indicated.)
Cc1cc(Nc2nccc(Oc3ccc(NC(=O)Nc4cc(C(C)(C)C)nn4-c4ccc(=O)n(CCN5CCOCC5)c4)c4ccccc34)n2)cc2cn[nH]c12 [Example 89, 1-(3-(tert-butyl)-1-(1-(2-morpholinoethyl)-6-oxo-1,6-dihydropyridin-3-yl)-1H-pyrazol-5-yl)-3-(4-((2-((7-methyl-1H-indazol-5-yl)amino)pyrimidin-4-yl)oxy)naphthalen-1-yl)urea]	28.8	2780	3	10.8	17.1	< 1	−ve (−ve and +ve indicate that the value is below and above respectively, the no significant effect threshold, defined as 30% inhibition at 1 μg/mL at the time point indicated.)	+ve (−ve and +ve indicate that the value is below and above respectively, the no significant effect threshold, defined as 30% inhibition at 1 μg/mL at the time point indicated.)
